Laboratory results taken from article PMC3758303 (PLoS ONE, 2013).

Columns and labels:
[1] = WST-1 cell proliferation assay, OR6 cells; format: cell-based; settings: human
Procedure: (§1) The WST-1 cell proliferation assay was performed as described previously. Briefly, The cells were plated onto 96-well plates (1×10^3 cells per well) in triplicate and then treated with each reagent at several concentrations for 72 hrs. After treatment, the cells were subjected to the WST-1 cell proliferation assay (Takara Bio, Otsu, Japan) according to the manufacturer’s protocol. This assay is based on the enzymatic cleavage of the tetrazolium salt WST-1 to formazan by cellular mitochondrial dehydrogenases present in viable cells. Therefore, there are […] the value of the WST-1 assay becomes zero. The experiments were performed at least in triplicate. From the assay results, the 50% cytotoxic concentration (CC50) of each reagent was determined.

[2] = tested on: genome-length HCV-RNA (1B-4 strain of genotype 1b) replication in Li23-derived 1B-4RL cells; experiment: 1B-4RL RL assay; format: cell-based; settings: Hepatitis C virus, 1B-4RL assay, Li23, HCV strain 1B-4, 72 hrs
Procedure: RSc and D7 cells were derived from the cell lines HuH-7 and Li23, respectively, were cultured as described previously, [29]. HuH-7-derived OR6 [13], AH1R [30], and 1B-4R [Ikeda et al., submitted] cells harboring genome-length HCV-RNA and HuH-7-derived polyclonal sOR [31], and RSc-JRN/35B [Ikeda et al., submitted] cells harboring an HCV subgenomic replicon were cultured with medium in the presence of G418 (0.3 mg/ml; Geneticin, Invitrogen, Carlsbad, CA) as described previously. Li23-derived ORL8 [20], ORL11 [20], 1B-4RL [Ikeda et al., submitted], and KAH5RL [Ikeda et al., submitted] cells harboring genome-length HCV-RNA were maintained with medium in the presence of G418 (0.3 mg/ml) as described previously. Li23-derived polyclonal sORL8 and sORL11 cells harboring an HCV replicon, which were established by the transfection of ORN/3-5B/QR,KE,SR RNA into the cured OL8 and OL11 cells, respectively, were also cultured with medium in the presence of G418 (0.3 mg/ml) as described previously. Cured cells, from which the HCV-RNA had been eliminated by IFN treatment, were also maintained with medium in the absence of G418 as described previously. […] Therefore, when HCV-RNA is excluded from the cells or when its level is decreased, the cells are killed in the presence of G418. […]
(§2) The SI value of each reagent was determined by dividing the CC50 value by the EC50 value.

[3] = WST-1 cell proliferation assay, 1B-4RL cells; format: cell-based; settings: human
Procedure: as §1

[4] = tested on: HCV subgenomic replicon RNA (O strain) replication in HuH-7-derived polyclonal sOR cells; experiment: sOR RL assay; format: cell-based, hepatitis C virus; settings: HuH-7, subgenomic replicon
Procedure: RSc and D7 cells were derived from the cell lines HuH-7 and Li23, respectively, were cultured as described previously, [29]. HuH-7-derived OR6 [13], AH1R [30], and 1B-4R [Ikeda et al., submitted] cells harboring genome-length HCV-RNA and HuH-7-derived polyclonal sOR [31], and RSc-JRN/35B [Ikeda et al., submitted] cells harboring an HCV subgenomic replicon were cultured with medium in the presence of G418 (0.3 mg/ml; Geneticin, Invitrogen, Carlsbad, CA) as described previously. Li23-derived ORL8 [20], ORL11 [20], 1B-4RL [Ikeda et al., submitted], and KAH5RL [Ikeda et al., submitted] cells harboring genome-length HCV-RNA were maintained with medium in the presence of G418 (0.3 mg/ml) as described previously. Li23-derived polyclonal sORL8 and sORL11 cells harboring an HCV replicon, which were established by the transfection of ORN/3-5B/QR,KE,SR RNA into the cured OL8 and OL11 cells, respectively, were also cultured with medium in the presence of G418 (0.3 mg/ml) as described previously. Cured cells, from which the HCV-RNA had been eliminated by IFN treatment, were also maintained with medium in the absence of G418 as described previously. […] Therefore, when HCV-RNA is excluded from the cells or when its level is decreased, the cells are killed in the presence of G418.
RL assay was performed as described previously, [24]. Briefly, the cells were plated onto 24-well plates (2×10^4 cells per well) in triplicate and then treated with each reagent at several concentrations for 72 hrs. After treatment, the cells were subjected to luciferase assay using the RL assay system (Promega, Madison, WI). The experiments were performed at least in triplicate. From the assay results, the 50% effective concentration (EC50) of each reagent was determined.
as §2

[5] = tested on: HCV-JFH-1 strain (genotype 2a) in HuH-7-derived RSc cells; experiment: JFH-1 reporter assay system, RSc cells; format: cell-based, hepatitis C virus; settings: RSc cells inoculated with JR/C5B/BX-2 supernatant, RL assay
Procedure: HCV infection was performed as described previously. RSc and D7 cells were inoculated with supernatant from RSc cells replicating JR/C5B/BX-2 [29].
Figure 2 Characterization of anti-HCV activities of N-89 and N-251. (A) Schematic gene organization of authentic HCV-RNA (HCV-O/RLGE). The positions of four adaptive mutations - Q1112R, P1115L, E1202G, and K1609E - are indicated by a black star. (B) N-89 and N-251 inhibited authentic HCV-RNA replication. The cells harboring HCV-O/RLGE RNA [19] were treated with N-89 (left panel) and N-251 (right panel) for 72 hrs, followed by real-time LightCycler PCR (black circles in the upper panel) and WST-1 assay (open triangles in the upper panel). The relative value (%) calculated at each point, when the level in non-treated cells was assigned as 100%, is presented here. Data are expressed as the means±standard deviation of triplicate assays. Western blot analysis (lower panels) was performed as described in Fig. 1B. […]
We next examined whether N-89 and N-251 worked in an HCV production system using HCV-JFH-1 strain (genotype 2a). […] To clarify whether anti-HCV activity depends on the difference of genotype or assay model, we evaluated the activities of N-89 and N-251 using RSc-JRN/35B [Ikeda et al., submitted] cells harboring a subgenomic HCV-JFH-1 replicon as an additional assay.

[6] = tested on: HCV-RNA replication in OR6 cells; experiment: Combination with IFN-α and/or RBV, OR6 RL assay; format: cell-based, hepatitis C virus; settings: 72 hrs
Excerpt: We examined the anti-HCV activity of N-89 or N-251 in combination with IFN-α using OR6 and ORL8 assay systems. […] However, such an effect was not clear in the OR6 assay (Fig. S4A). […] Therefore, we next examined the combination effect of RBV in the same way as IFN-α using an ORL8 assay. […] Therefore, we further examined the effect of N89 or N-251 in combination with both IFN-α and RBV using an ORL8 assay.
Supplementary file pone.0072519.s004.tif: Figure S4 Anti-HCV effects of N-89 or N-251 in combination with IFN-α and/or RBV on HCV-RNA replication in OR6 cells. […] (A) Effect of N-89 or N-251 in combination with IFN-α on OR6 assay. OR6 cells were treated with N-89 (upper panel) or N-251 (lower panel) in combination with IFN-α for 72 hrs and subjected to RL assay. (B) Effect of N-89 or N-251 in combination with RBV on OR6 assay. OR6 cells were treated with N-89 (upper panel) or N-251 (lower panel) in combination with RBV for 72 hrs and subjected to RL assay. (C) Effect of N-89 or N-251 in combination with IFN-α and RBV on OR6 assay. OR6 cells were treated with N-89 (upper panel) or N-251 (lower panel) in combination with IFN-α and RBV for 72 hrs and subjected to RL assay. (TIF) Click here for additional data file.

Compound	CC50 at 72 h [1] [nM]	EC50 [2] [nM]	CC50 at 72 h [3] [nM]	EC50 ([4]; Hepatitis C virus, Huh-7, 72 h) [nM]	EC50 ([4]; 72 hrs) [nM]	anti-HCV activity for the HCV-JFH-1 strain [5]	anti-HCV effect in combination with IFN-α [6]	anti-HCV effect in combination with RBV [6]
C1CCCCCC2(CCCCC1)OOCCCOO2 [N-89, 1,2,6,7-Tetraoxaspiro[7.11]nonadecane]	9000	120	2400	< 1000	580	did not show anti-HCV activity	not clear	additive anti-HCV effect
OCCCCCCC1COOC2(CCCCCCCCCCC2)OOC1 [N-251, 6-(1,2,6,7-tetraoxaspiro[7.11]nonadec-4-yl)hexan-1-ol]	3000	230	1900	< 1000	690	did not show anti-HCV activity	not clear	additive anti-HCV effect
